Patent US20030022158A1, “Peptides from the TT virus sequence and monospecific antibodies binding to the TT virus” (priority 1999, published 2003)

Key:
[1] = system: human IgG antibodies in human serum samples; test: EIA of human antibody reactivities to overlapping synthetic peptides of TTV ORF1 and ORF2 (Tables 2 and 3); format: binding; settings: for optical density (OD) at 405 nm: serum diluted 1:100, OD over 0.500 considered positive; for human reactivity to peptide (reactive peptides within ORF1): tested human sera, EIA
Text: Overlapping peptides (18 amino acids in length containing an 8 amino acid overlap) corresponding to regions of the ORFI and ORF2 of TTV (TABLE 1; Genebank accession no AB008394) were produced by a multiple peptide synthesizer (Syro, Syntex, Germany) using standard Fmoc chemistry (Sallberg et al., Immunology Letters, 30:59 68 (1991), herein expressly incorporated by reference in its entirety).
(§1) The EIAs used to identify which peptides interacted with human sera followed protocols known in the art. (See Zhang et al., J Gen Virol, 78:2735-2746 (1997), herein expressly incorporated by reference in its entirety). Briefly, microplates (Nunc, Denmark) were coated for 48 hours with synthetic peptides at a concentration of 10 μg/ml in 0.05M sodium carbonate buffer pH 9.6. After blocking for 2 hours at room temperature with phosphate buffered saline containing 1% bovine serum albumin, 2% goat serum and 0.05% Tween 20 (dilution buffer) the plates were incubated with human sera diluted 1:100 in dilution buffer. Bound human IgG was detected by incubation with anti-human IgG antibodies conjugated to alkaline phosphatase (Sigma Chemicals, St. Louis, Mo.). The plates were developed by the addition of […] (Sigma) and the optical densities were determined at 405 nm.

[2] = system: human antibodies in human serum samples; test: EIA reactivities of three human serum samples with deletion and alanine substitution analogues of SEQ ID NO: 1 (Table 6); format: binding; settings: positive = more than 50% of the reactivity of the original peptide
Description: as §1
The reactivity to the TATTTTYAYPGTNRPPV (SEQ ID NO: 1) peptide was further characterized by mapping the reactivity of deletion and substitution peptide analogues.

[3] = human serum sample 1, negative for TTV DNA by PCR
[4] = human serum sample 2, negative for TTV DNA by PCR
[5] = human serum sample 3, negative for TTV DNA by PCR
[6] = human serum sample 4, negative for TTV DNA by PCR
[7] = human serum sample 5, negative for TTV DNA by PCR
[8] = human serum sample 6, negative for TTV DNA by PCR
[9] = human serum sample 7, negative for TTV DNA by PCR
[10] = human serum sample 9, positive for TTV DNA by PCR
[11] = human serum sample 11, negative for TTV DNA by PCR
[12] = human serum sample 18, positive for TTV DNA by PCR
[13] = human serum sample 36, positive for TTV DNA by PCR
[14] = human serum sample 48, positive for TTV DNA by PCR
[15] = human serum sample 98, positive for TTV DNA by PCR
[16] = human serum sample 110, positive for TTV DNA by PCR
[17] = human serum sample 155, positive for TTV DNA by PCR
[18] = human serum sample 157, positive for TTV DNA by PCR

Substance: 20: overlapping synthetic peptide of TTV ORF1 (TATTTTYAYPGTNRPP) [compound 20]
- optical density (OD) at 405 nm [1, 3]: 0.07 OD
- optical density (OD) at 405 nm [1, 4]: 0.06 OD
- optical density (OD) at 405 nm [1, 5]: 0.06 OD
- optical density (OD) at 405 nm [1, 6]: 0.07 OD
- optical density (OD) at 405 nm [1, 7]: 0.06 OD
- optical density (OD) at 405 nm [1, 8]: 0.08 OD
- optical density (OD) at 405 nm [1, 9]: 0.08 OD
- optical density (OD) at 405 nm [1, 10]: 0.08 OD
- optical density (OD) at 405 nm [1, 11]: 0.11 OD
- optical density (OD) at 405 nm [1, 12]: 0.07 OD
- optical density (OD) at 405 nm [1, 13]: 0.07 OD
- optical density (OD) at 405 nm [1, 14]: 0.09 OD
- optical density (OD) at 405 nm [1, 15]: 0.04 OD
- optical density (OD) at 405 nm [1, 16]: 0.06 OD
- optical density (OD) at 405 nm [1, 17]: 0.09 OD
- optical density (OD) at 405 nm [1, 18]: 0.10 OD
- optical density (OD) at 405 nm, EIA reactivity of human serum sample 1 ([1]; serum sample 1, negative for TTV DNA by PCR, serum 1:100, peptide coated 10 μg/ml, OD over 0.500 positive): 0.09 OD
- optical density (OD) at 405 nm, EIA reactivity of human serum sample 2 ([1]; serum sample 2, negative for TTV DNA by PCR, serum 1:100, peptide coated 10 μg/ml, OD over 0.500 positive): 0.10 OD
- optical density (OD) at 405 nm, EIA reactivity of human serum sample 3 ([1]; serum sample 3, negative for TTV DNA by PCR, serum 1:100, peptide coated 10 μg/ml, OD over 0.500 positive): 0.09 OD
- optical density (OD) at 405 nm, EIA reactivity of human serum sample 4 ([1]; serum sample 4, negative for TTV DNA by PCR, serum 1:100, peptide coated 10 μg/ml, OD over 0.500 positive): 0.08 OD
- optical density (OD) at 405 nm, EIA reactivity of human serum sample 5 ([1]; serum sample 5, negative for TTV DNA by PCR, serum 1:100, peptide coated 10 μg/ml, OD over 0.500 positive): 0.07 OD
- optical density (OD) at 405 nm, EIA reactivity of human serum sample 6 ([1]; serum sample 6, negative for TTV DNA by PCR, serum 1:100, peptide coated 10 μg/ml, OD over 0.500 positive): 0.10 OD
- optical density (OD) at 405 nm, EIA reactivity of human serum sample 7 ([1]; serum sample 7, negative for TTV DNA by PCR, serum 1:100, peptide coated 10 μg/ml, OD over 0.500 positive): 0.07 OD
- optical density (OD) at 405 nm, EIA reactivity of human serum sample 9 ([1]; serum sample 9, positive for TTV DNA by PCR, serum 1:100, peptide coated 10 μg/ml, OD over 0.500 positive): 0.10 OD
- optical density (OD) at 405 nm, EIA reactivity of human serum sample 11 ([1]; serum sample 11, negative for TTV DNA by PCR, serum 1:100, peptide coated 10 μg/ml, OD over 0.500 positive): 0.09 OD
- optical density (OD) at 405 nm, EIA reactivity of human serum sample 18 ([1]; serum sample 18, positive for TTV DNA by PCR, serum 1:100, peptide coated 10 μg/ml, OD over 0.500 positive): 0.10 OD
- optical density (OD) at 405 nm, EIA reactivity of human serum sample 36 ([1]; serum sample 36, positive for TTV DNA by PCR, serum 1:100, peptide coated 10 μg/ml, OD over 0.500 positive): 0.08 OD
- optical density (OD) at 405 nm, EIA reactivity of human serum sample 48 ([1]; serum sample 48, positive for TTV DNA by PCR, serum 1:100, peptide coated 10 μg/ml, OD over 0.500 positive): 0.08 OD
- optical density (OD) at 405 nm, EIA reactivity of human serum sample 98 ([1]; serum sample 98, positive for TTV DNA by PCR, serum 1:100, peptide coated 10 μg/ml, OD over 0.500 positive): 0.08 OD
- optical density (OD) at 405 nm, EIA reactivity of human serum sample 110 ([1]; serum sample 110, positive for TTV DNA by PCR, serum 1:100, peptide coated 10 μg/ml, OD over 0.500 positive): 0.10 OD
- optical density (OD) at 405 nm, EIA reactivity of human serum sample 155 ([1]; serum sample 155, positive for TTV DNA by PCR, serum 1:100, peptide coated 10 μg/ml, OD over 0.500 positive): 0.14 OD
- optical density (OD) at 405 nm, EIA reactivity of human serum sample 157 ([1]; serum sample 157, positive for TTV DNA by PCR, serum 1:100, peptide coated 10 μg/ml, OD over 0.500 positive): 0.16 OD
- OD at 405 nm, reactivity of human serum sample P4 [2]: 0.096 OD
- OD at 405 nm, reactivity of human serum sample P7 [2]: 0.144 OD
- OD at 405 nm, reactivity of human serum sample P36 [2]: 0.086 OD

Substance: YTDIKYNPFTDRGEGNM (Peptide Immunogen) [compound 44, overlapping synthetic peptide of TTV ORF1]
- optical density (OD) at 405 nm [1, 3]: 0.09 OD
- optical density (OD) at 405 nm [1, 4]: 0.11 OD
- optical density (OD) at 405 nm [1, 5]: 0.11 OD
- optical density (OD) at 405 nm [1, 6]: 0.12 OD
- optical density (OD) at 405 nm [1, 7]: 0.98 OD
- optical density (OD) at 405 nm [1, 8]: 0.15 OD
- optical density (OD) at 405 nm [1, 9]: 0.10 OD
- optical density (OD) at 405 nm [1, 10]: 0.09 OD
- optical density (OD) at 405 nm [1, 11]: 0.14 OD
- optical density (OD) at 405 nm [1, 12]: 0.09 OD
- optical density (OD) at 405 nm [1, 13]: 0.08 OD
- optical density (OD) at 405 nm [1, 14]: 0.08 OD
- optical density (OD) at 405 nm [1, 15]: 0.12 OD
- optical density (OD) at 405 nm [1, 16]: 0.13 OD
- optical density (OD) at 405 nm [1, 17]: 0.17 OD
- optical density (OD) at 405 nm [1, 18]: 1.25 OD
- human reactivity to peptide (reactive peptides within ORF1) [1]: Reactive
- OD at 405 nm, reactivity of human serum sample P4 [2]: 0.855 OD
- OD at 405 nm, reactivity of human serum sample P7 [2]: 1.829 OD
- OD at 405 nm, reactivity of human serum sample P36 [2]: 0.806 OD

Substance: 21: overlapping synthetic peptide of TTV ORF1 (TATTTTYAYPGTNRP) [compound 21]
- optical density (OD) at 405 nm [1, 3]: 0.00 OD
- optical density (OD) at 405 nm [1, 4]: 0.00 OD
- optical density (OD) at 405 nm [1, 5]: 0.00 OD
- optical density (OD) at 405 nm [1, 6]: 0.00 OD
- optical density (OD) at 405 nm [1, 7]: 0.00 OD
- optical density (OD) at 405 nm [1, 8]: 0.00 OD
- optical density (OD) at 405 nm [1, 9]: 0.00 OD
- optical density (OD) at 405 nm [1, 10]: 0.00 OD
- optical density (OD) at 405 nm [1, 11]: 0.00 OD
- optical density (OD) at 405 nm [1, 12]: 0.00 OD
- optical density (OD) at 405 nm [1, 13]: 0.00 OD
- optical density (OD) at 405 nm [1, 14]: 0.00 OD
- optical density (OD) at 405 nm [1, 15]: 0.00 OD
- optical density (OD) at 405 nm [1, 16]: 0.00 OD
- optical density (OD) at 405 nm [1, 17]: 0.00 OD
- optical density (OD) at 405 nm [1, 18]: 0.00 OD
- OD at 405 nm, reactivity of human serum sample P4 [2]: 0.100 OD
- OD at 405 nm, reactivity of human serum sample P7 [2]: 0.099 OD
- OD at 405 nm, reactivity of human serum sample P36 [2]: 0.078 OD

Substance: PDEKSQREILLNKIASY (Peptide Immunogen) [compound 29, overlapping synthetic peptide of TTV ORF1]
- optical density (OD) at 405 nm [1, 3]: 0.42 OD
- optical density (OD) at 405 nm [1, 4]: 0.36 OD
- optical density (OD) at 405 nm [1, 5]: 0.45 OD
- optical density (OD) at 405 nm [1, 6]: 0.53 OD
- optical density (OD) at 405 nm [1, 7]: 0.22 OD
- optical density (OD) at 405 nm [1, 8]: 0.95 OD
- optical density (OD) at 405 nm [1, 9]: 0.29 OD
- optical density (OD) at 405 nm [1, 10]: 0.21 OD
- optical density (OD) at 405 nm [1, 11]: 0.14 OD
- optical density (OD) at 405 nm [1, 12]: 0.11 OD
- optical density (OD) at 405 nm [1, 13]: 0.09 OD
- optical density (OD) at 405 nm [1, 14]: 0.10 OD
- optical density (OD) at 405 nm [1, 15]: 0.09 OD
- optical density (OD) at 405 nm [1, 16]: 0.25 OD
- optical density (OD) at 405 nm [1, 17]: 0.59 OD
- optical density (OD) at 405 nm [1, 18]: 0.62 OD
- human reactivity to peptide (reactive peptides within ORF1) [1]: Reactive
- OD at 405 nm, reactivity of human serum sample P4 [2]: 0.142 OD
- OD at 405 nm, reactivity of human serum sample P7 [2]: 0.105 OD
- OD at 405 nm, reactivity of human serum sample P36 [2]: 0.076 OD
